Source: ChEMBL document CHEMBL4814005, “Pragmatic recruitment of memantine as the capping group for the design of HDAC inhibitors: A preliminary attempt to unravel the enigma of glioblastoma” (Eur J Med Chem, 2021)
Activity calls are given as the source filed them. The rule behind the calls is not given here.

How the values were obtained:
A 172 [1] = test: Induction of cell cycle arrest in human A 172 cells assessed as accumulation at G0/G1 phase by propidium iodide staining based flow cytometric analysis; assay type: functional; conditions: dose microM <=10
U-87 MG [2] = test: Antitumor activity in TMZ-resistant human U-87 MG cells transplanted in BALB/C mouse assessed as increase in mouse survival at 10 mg/kg, ip measured for every 2 days measured for 40 days; assay type: functional, organism-based; conditions: U-87MG ATCC, time 40.0 day
Histone deacetylase 3 = Histone deacetylase 3 (Homo sapiens, UniProt O15379); test: Inhibition of human recombinant HDAC3 using [RHKK(Ac)] fluorogenic substrate
U-87 MG [3] = test: Cytotoxicity against human U-87 MG cells assessed as reduction in cell viability upto 30 uM by MTT assay; assay type: functional, cell-based; conditions: U-87MG ATCC, dose microM <=30, time hrs <=72, TDE = time-dependent effect
Histone deacetylase 8 = biological target: T1, Histone deacetylase 8 (Homo sapiens, UniProt Q9BY41); test: Inhibition of human recombinant HDAC8 using [RHKK(Ac)] fluorogenic substrate
T1 sequence (Q9BY41 whole entry): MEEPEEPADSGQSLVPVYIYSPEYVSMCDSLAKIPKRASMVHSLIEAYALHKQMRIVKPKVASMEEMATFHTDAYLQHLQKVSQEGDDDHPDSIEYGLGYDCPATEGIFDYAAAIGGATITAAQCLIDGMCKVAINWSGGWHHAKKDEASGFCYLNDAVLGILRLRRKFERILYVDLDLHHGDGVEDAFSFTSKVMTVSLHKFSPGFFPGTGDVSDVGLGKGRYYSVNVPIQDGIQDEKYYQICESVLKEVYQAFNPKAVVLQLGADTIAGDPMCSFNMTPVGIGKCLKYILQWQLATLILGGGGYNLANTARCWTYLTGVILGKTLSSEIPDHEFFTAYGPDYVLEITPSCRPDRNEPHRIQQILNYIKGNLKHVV

A 172 [4] = test: Induction of cell cycle arrest in human A 172 cells assessed as increase in histone H3-S10 dephosphorylation upto 10 uM for 24 hrs by Western blot analysis; assay type: functional, cell-based; conditions: dose microM <=10, time 24.0 hrs
Glioblastoma cell line [5] = test: Cytotoxicity against TMZ-resistant human glioblastoma cell P5 cells assessed as reduction in cell viability upto 72 hrs by MTT assay; assay type: functional, cell-based; conditions: dose microM <=30, time hrs <=72
Glioblastoma cell line [6] = test: Cytotoxicity against human glioblastoma cell P3 cells assessed as reduction in cell viability upto 72 hrs by MTT assay; assay type: functional, cell-based; conditions: dose microM <=30, time hrs <=72
A 172 [7] = test: Effect on cyclin B1 expression in human A 172 cells upto 10 uM after 24 hrs by Western blot analysis; assay type: functional, cell-based; conditions: dose microM <=10, time 24.0 hrs
Glioblastoma cell line [8] = test: Cytotoxicity against human glioblastoma cell P5 cells assessed as reduction in cell viability upto 30 uM by MTT assay; assay type: functional, cell-based; conditions: dose microM <=30, time hrs <=72, TDE = time-dependent effect
Glioblastoma cell line [9] = test: Cytotoxicity against human glioblastoma cell P5 cells assessed as reduction in cell viability upto 72 hrs by MTT assay; assay type: functional, cell-based; conditions: dose microM <=30, time hrs <=72
A 172 [10] = test: Cytotoxicity against human A 172 cells assessed as reduction in cell viability upto 72 hrs by MTT assay; assay type: functional, cell-based; conditions: dose microM <=30, time hrs <=72
U-87 MG [11] = test: Antiproliferation activity against human U-87 MG cells assessed as growth inhibition measured after 1 hr by MTT assay; assay type: functional, cell-based, U-87MG ATCC
[12] = biological target: Cyclin-dependent kinase 1/cyclin B1 (Homo sapiens) (UniProt P06493+P14635); test: Inhibition of CDK1/Cyclin B interaction in human A 172 cells assessed as CDK1 acetylation at 3 uM for 24 hrs by Western blot analysis; assay type: cell-based
Glioblastoma cell line [13] = test: Cytotoxicity against TMZ-resistant human glioblastoma cell P3 cells assessed as reduction in cell viability upto 72 hrs by MTT assay; assay type: functional, cell-based; conditions: dose microM <=30, time hrs <=72
Glioblastoma cell line [14] = test: Antiproliferation activity against TMZ resistant human glioblastoma cell P1S assessed as growth inhibition at 3 uM by MTT assay; assay type: functional
Glioblastoma cell line [15] = test: Cytotoxicity against TMZ-resistant human glioblastoma cell P5 cells assessed as reduction in cell viability upto 30 uM by MTT assay; assay type: functional, cell-based; conditions: dose microM <=30, time hrs <=72, TDE = time-dependent effect
A 172 [16] = test: Induction of cell cycle arrest in human A 172 cells assessed as increase in histone alpha-tubulin-K40 acetylation upto 10 uM for 24 hrs by Western blot analysis; assay type: functional, cell-based; conditions: dose microM <=10, time 24.0 hrs
Glioblastoma cell line [17] = test: Cytotoxicity against human glioblastoma cell P3 cells assessed as reduction in cell viability upto 30 uM by MTT assay; assay type: functional, cell-based; conditions: dose microM <=30, time hrs <=72, TDE = time-dependent effect
Glioblastoma cell line [18] = test: Cytotoxicity against TMZ-resistant human glioblastoma cell P3 cells assessed as reduction in cell viability upto 30 uM by MTT assay; assay type: functional, cell-based; conditions: dose microM <=30, time hrs <=72, TDE = time-dependent effect
A 172 [19] = test: Induction of cell cycle arrest in human A172 cells assessed as accumulation at G1/S phase measured by increase in cyclin E expression upto 10 uM after 24 hrs by Western blot analysis; assay type: functional, cell-based; conditions: dose microM <=10, time 24.0 hrs
Histone deacetylase 1 = Histone deacetylase 1 (Homo sapiens, UniProt Q13547); test: Inhibition of human recombinant HDAC1 expressed in baculovirus infected insect cells using [RHKK(Ac)] fluorogenic substrate
U-87 MG [20] = test: Cytotoxicity against TMZ-resistant human U-87 MG cells assessed as reduction in cell viability upto 72 hrs by MTT assay; assay type: functional, cell-based; conditions: U-87MG ATCC, dose microM <=30, time hrs <=72
U-87 MG [21] = test: Antiproliferation activity against human U-87 MG cells assessed as growth inhibition at 10 uM after 3 days by MTT assay; assay type: functional, U-87MG ATCC; conditions: 72 h, time 3 day
A 172 [22] = test: Downregulation of PCNA expression in human A 172 cells upto 10 uM measured after 24 hrs by Western blot analysis; assay type: functional, cell-based; conditions: dose microM <=10, time 24.0 hrs
U-87 MG [23] = test: Cytotoxicity against human U-87 MG cells assessed as reduction in cell viability upto 72 hrs by MTT assay; assay type: functional, cell-based; conditions: U-87MG ATCC, dose microM <=30, time hrs <=72
A 172 [24] = test: Induction of cell cycle arrest in human A 172 cells assessed as increase in histone H3-K9/K14 acetylation upto 10 uM for 24 hrs by Western blot analysis; assay type: functional, cell-based; conditions: dose microM <=10, time 24.0 hrs
A 172 [25] = test: Cytotoxicity against TMZ-resistant human A 172 cells assessed as reduction in cell viability upto 72 hrs by MTT assay; assay type: functional, cell-based; conditions: dose microM <=30, time hrs <=72
A 172 [26] = test: Cytotoxicity against TMZ-resistant human A 172 cells assessed as reduction in cell viability upto 30 uM by MTT assay; assay type: functional, cell-based; conditions: dose microM <=30, time hrs <=72, TDE = time-dependent effect
A 172 [27] = test: Induction of apoptosis in human A 172 cells assessed as upregulation of activated caspase 3 protein at 3 uM after 24 hrs by western blot analysis; assay type: functional, cell-based
U-87 MG [28] = test: Antiproliferation activity against TMZ resistant human U-87 MG R-50 cells assessed as growth inhibition at 3 uM by MTT assay; assay type: functional, cell-based; conditions: U-87MG ATCC
A 172 [29] = test: Induction of apoptosis in human A 172 cells assessed as upregulation of cleaved PARP at 3 uM after 24 hrs by western blot analysis; assay type: functional, cell-based
A 172 [30] = test: Cytotoxicity against human A 172 cells assessed as reduction in cell viability upto 30 uM by MTT assay; assay type: functional, cell-based; conditions: dose microM <=30, time hrs <=72, TDE = time-dependent effect
A 172 [31] = test: Induction of cell cycle arrest in human A 172 cells assessed as accumulation at G2/M phase by propidium iodide staining based flow cytometric analysis; assay type: functional; conditions: dose microM <=10
Glioblastoma cell line [32] = test: Cytotoxicity against human glioblastoma cell P1S cells assessed as reduction in cell viability upto 72 hrs by MTT assay; assay type: functional, cell-based; conditions: dose microM <=30, time hrs <=72
[33] = Permeability of compound by PAMPA-BBB assay
U-87 MG [34] = test: Cytotoxicity against TMZ-resistant human U-87 MG cells assessed as reduction in cell viability upto 30 uM by MTT assay; assay type: functional, cell-based; conditions: U-87MG ATCC, dose microM <=30, time hrs <=72, TDE = time-dependent effect
Glioblastoma cell line [35] = test: Cytotoxicity against human glioblastoma cell P1S cells assessed as reduction in cell viability upto 30 uM by MTT assay; assay type: functional, cell-based; conditions: dose microM <=30, time hrs <=72, TDE = time-dependent effect

Chain of Histone deacetylase 3 (O15379 whole entry): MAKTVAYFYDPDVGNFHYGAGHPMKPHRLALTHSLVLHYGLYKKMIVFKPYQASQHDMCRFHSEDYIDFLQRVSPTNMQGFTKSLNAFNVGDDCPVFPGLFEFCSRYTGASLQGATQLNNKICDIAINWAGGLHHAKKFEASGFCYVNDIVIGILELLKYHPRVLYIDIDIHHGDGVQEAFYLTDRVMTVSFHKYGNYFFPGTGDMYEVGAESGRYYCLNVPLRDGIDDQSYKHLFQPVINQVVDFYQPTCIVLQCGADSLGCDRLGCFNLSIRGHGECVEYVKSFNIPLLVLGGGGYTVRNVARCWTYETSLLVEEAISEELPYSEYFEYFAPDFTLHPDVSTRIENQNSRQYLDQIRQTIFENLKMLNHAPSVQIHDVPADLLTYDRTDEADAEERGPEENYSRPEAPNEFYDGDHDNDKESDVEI
Chain of Cyclin-dependent kinase 1/cyclin B1 (Homo sapiens) (P06493 whole entry, looked up): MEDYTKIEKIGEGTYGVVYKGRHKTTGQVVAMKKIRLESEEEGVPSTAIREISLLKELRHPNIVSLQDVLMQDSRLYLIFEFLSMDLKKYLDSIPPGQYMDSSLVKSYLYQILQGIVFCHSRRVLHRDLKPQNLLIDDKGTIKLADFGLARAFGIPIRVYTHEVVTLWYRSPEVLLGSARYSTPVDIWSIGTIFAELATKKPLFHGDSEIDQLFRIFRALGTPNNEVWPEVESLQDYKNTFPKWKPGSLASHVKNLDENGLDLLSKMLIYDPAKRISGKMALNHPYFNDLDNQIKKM
Chain of Cyclin-dependent kinase 1/cyclin B1 (Homo sapiens) (P14635 whole entry, looked up): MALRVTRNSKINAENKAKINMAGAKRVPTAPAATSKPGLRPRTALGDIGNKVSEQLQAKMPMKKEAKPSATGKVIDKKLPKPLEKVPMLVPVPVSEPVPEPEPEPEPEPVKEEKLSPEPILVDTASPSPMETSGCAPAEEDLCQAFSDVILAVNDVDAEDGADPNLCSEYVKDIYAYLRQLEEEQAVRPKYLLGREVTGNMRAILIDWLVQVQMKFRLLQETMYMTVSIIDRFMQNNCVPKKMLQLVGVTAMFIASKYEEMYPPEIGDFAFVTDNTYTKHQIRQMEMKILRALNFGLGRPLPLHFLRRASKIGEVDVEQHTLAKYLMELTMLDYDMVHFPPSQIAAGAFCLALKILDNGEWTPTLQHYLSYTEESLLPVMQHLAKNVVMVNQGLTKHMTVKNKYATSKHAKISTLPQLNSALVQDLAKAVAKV
Chain of Histone deacetylase 1 (Q13547 whole entry): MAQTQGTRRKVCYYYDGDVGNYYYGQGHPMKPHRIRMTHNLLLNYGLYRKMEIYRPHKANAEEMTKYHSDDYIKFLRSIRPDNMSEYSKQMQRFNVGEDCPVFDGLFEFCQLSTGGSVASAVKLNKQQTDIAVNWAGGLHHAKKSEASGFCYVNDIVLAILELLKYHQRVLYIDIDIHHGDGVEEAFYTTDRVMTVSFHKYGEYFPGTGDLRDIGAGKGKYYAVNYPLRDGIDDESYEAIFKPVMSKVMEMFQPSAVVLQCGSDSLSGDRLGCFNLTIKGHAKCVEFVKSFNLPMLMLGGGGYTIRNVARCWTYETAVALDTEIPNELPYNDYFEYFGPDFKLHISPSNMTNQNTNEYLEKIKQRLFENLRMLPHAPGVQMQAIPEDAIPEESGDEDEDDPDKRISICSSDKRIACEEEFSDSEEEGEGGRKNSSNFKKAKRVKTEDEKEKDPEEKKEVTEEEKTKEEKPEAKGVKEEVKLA

Question: With CC12CC3CC(C)(C1)CC(NCc1ccc(NC(=O)CCCCCCC(=O)NO)cc1)(C3)C2 as the molecule, how does the Activity (A 172 [1]) read?
Answer: Its Activity is “Dose-Dependent Effect”.

Question: And the Activity (U-87 MG [2])?
Answer: Its Activity is “Active”.

Question: And the IC50 (Histone deacetylase 3)?
Answer: Its IC50 is 806 nM.

Question: What about the Activity (U-87 MG [3]) of the same molecule?
Answer: The Activity was “Tde”.

Question: What about the IC50 (Histone deacetylase 8) of the same molecule?
Answer: The IC50 was 638 nM.

Question: What about the Activity (A 172 [4]) of the same molecule?
Answer: The Activity was “Active”.

Question: And the Activity (Glioblastoma cell line [5])?
Answer: Its Activity is “Dose-Dependent Effect”.

Question: What about the Activity (Glioblastoma cell line [6]) of the same molecule?
Answer: Its Activity is “Dose-Dependent Effect”.

Question: What about the Activity (A 172 [7]) of the same molecule?
Answer: Its Activity is “inactive”.

Question: And the Activity (Glioblastoma cell line [8])?
Answer: The Activity was “Tde”.

Question: What about the Activity (Glioblastoma cell line [9]) of the same molecule?
Answer: Its Activity is “Dose-Dependent Effect”.

Question: And the Activity (A 172 [10])?
Answer: The Activity was “Dose-Dependent Effect”.

Question: What about the IC50 (U-87 MG [11]) of the same molecule?
Answer: Its IC50 is 2950 nM.

Question: And the Activity [12]?
Answer: Its Activity is “Active”.

Question: And the Activity (Glioblastoma cell line [13])?
Answer: The Activity was “Dose-Dependent Effect”.

Question: What about the Activity (Glioblastoma cell line [14]) of the same molecule?
Answer: Its Activity is “inactive”.

Question: What about the Activity (Glioblastoma cell line [15]) of the same molecule?
Answer: Its Activity is “Tde”.

Question: And the Activity (A 172 [16])?
Answer: Its Activity is “Active”.

Question: What about the Activity (Glioblastoma cell line [17]) of the same molecule?
Answer: Its Activity is “Tde”.

Question: And the Activity (Glioblastoma cell line [18])?
Answer: Its Activity is “Tde”.

Question: And the Activity (A 172 [19])?
Answer: Its Activity is “Active”.

Question: What about the IC50 (Histone deacetylase 1) of the same molecule?
Answer: Its IC50 is 347 nM.

Question: And the Activity (U-87 MG [20])?
Answer: The Activity was “Dose-Dependent Effect”.

Question: And the inhibition at 10 µM (U-87 MG [21])?
Answer: The inhibition at 10 µM was 90%.

Question: And the Activity (A 172 [22])?
Answer: The Activity was “inactive”.

Question: What about the Activity (U-87 MG [23]) of the same molecule?
Answer: The Activity was “Dose-Dependent Effect”.

Question: What about the Activity (A 172 [24]) of the same molecule?
Answer: Its Activity is “Active”.

Question: And the Activity (A 172 [25])?
Answer: The Activity was “Dose-Dependent Effect”.

Question: And the Activity (A 172 [26])?
Answer: Its Activity is “Tde”.

Question: What about the Activity (A 172 [27]) of the same molecule?
Answer: The Activity was “Active”.

Question: And the Activity (U-87 MG [28])?
Answer: Its Activity is “inactive”.

Question: And the Activity (A 172 [29])?
Answer: The Activity was “Active”.

Question: And the Activity (A 172 [30])?
Answer: Its Activity is “Tde”.

Question: What about the Activity (A 172 [31]) of the same molecule?
Answer: Its Activity is “Dose-Dependent Effect”.

Question: What about the Activity (Glioblastoma cell line [32]) of the same molecule?
Answer: Its Activity is “Dose-Dependent Effect”.

Question: And the Papp [33]?
Answer: The Papp was 339 ×10⁻⁶ cm/s.

Question: What about the Activity (U-87 MG [34]) of the same molecule?
Answer: Its Activity is “Tde”.

Question: What about the Activity (Glioblastoma cell line [35]) of the same molecule?
Answer: The Activity was “Tde”.
